Experiment [1] has as its system G30 neurospheres (glioma stem-like cells, luciferase-transduced). The experiment is described as follows: G30 cytotoxicity assay. In kind it is cell-based. Conditions: read-out: IC50 in G30 GSCs, 72 h treatment, CellTiter-Glo. (ATP-based viability assays read luminescence as a measure of living cells.)
Experiment [2] relates to G9 neurospheres (glioma stem-like cells). The experiment is described as follows: G9 cytotoxicity assay. In kind it is cell-based.

From article PMC7992430 (Journal of medicinal chemistry, 2020) come the findings set out here.

pIC50: −log10 of the molar value.

Consider `N.N.[Cl][Pt][Cl]` [cisplatin], for which the pIC50 is 5.70 in experiment [1] and 5.40 in experiment [2] (read-out: IC50 against G9 cells, 80 h treatment, CellTiter-Glo).

With `CCCCNC(=O)[O][Pt]([NH2])([NH2])([Cl])([Cl])[O]C(=O)CCC(=O)O` [prodrug 4, cis,cis,trans-[Pt(NH3)2Cl2(O2CCH2CH2COOH)(n-butyl Carba-mate)]], the “IC50 against G9 cells” value in experiment [2] (80 h treatment, CellTiter-Glo) is “not active”.

Broadly, the pIC50 is the IC50 on a negative log10 scale, so that one unit is a factor of ten.
